Laboratory results taken from patent US7951920B2, “Conjugate of an antibody against CCR5 and an antifusogenic peptide” (Roche Palo Alto LLC, priority 2006, dated 2011).

Columns and labels:
[1] = system: pseudotyped NL-Bal viruses; assay type: cell-based, HIV; conditions: pseudotyped NL-Bal virus, JC53-BL cells, 3 day incubation, inhibition of luciferase activity
Procedure: For the production of pseudotyped NL-Bal viruses, plasmid pNL4-3Δenv (HIV pNL4-3 genomic construct with a deletion within the env gene) and pcDNA3.1/NL-BAL env [pcDNA3.1 plasmid containing NL-Bal env gene (obtained from NIBSC Centralized Facility for AIDS Reagents)] were co-transfected into the HEK 293FT cell line (Invitrogen), cultured in Dulbecco's modified […] (DMEM) containing 10% fetal calf serum (FCS), 100 U/mL Penicillin, 100 μg/mL Streptomycin, 2 mM L-glutamine and 0.5 mg/mL geniticin (all media from Invitrogen/Gibco). The supernatants containing pseudotyped viruses were harvested two days following transfection, and cellular debris was removed by filtration through a 0.45 μm pore size PES (polyethersulfone) filter (Nalgene) and stored at −80° C. in aliquots. For normalization in assay performance, virus stock aliquots were used to infect JC53-BL (US NIH Aids Reagent Program) cells yielding approximately 1.5×10^5 RLU (relative light units) per well. Test antifusogenic peptide-anti-CCR5 antibody conjugates, reference antibodies and reference antifusogenic peptides (T-20, T-1249, T-651 and T-2635) were serially diluted in 96-well plates. The assay was carried out in quadruplicates. Each plate contained cell control and virus control wells. The equivalent of 1.5×10^5 RLU of virus stocks were added to each well, then 2.5×10^4 JC53-BL cells were added to each well, with a final assay volume of 200 μl per well. After 3 day incubation at 37° C., 90% Relative Humidity, and 5% CO2, media were aspirated and 50 μl of Steady-Glo® Luciferase Assay System (Promega) was added to each well. The assay plates were read on a Luminometer (Luminoskan, Thermo Electron Corporation) after 10 minutes of incubation at room temperature. Percent inhibition of luciferase activity was calculated for each dose point after subtracting the background, and IC50 and IC90-values were determined by using XLfit curve fitting software for Excel (version 3.0.5 Build12; […]).

[2] = system: CCR5 mutant K171A or E172A; assay: Epitope binding by alanine scanning (epitope mapping); design: species or system human; conditions: 100% epitope binding is defined for wild-type CCR5
Excerpt: Epitope binding is investigated by using alanine scanning according to the method described by W. C. Olson et al. (J. Virol. (1999) 73:4145-55) for epitope mapping. […] Epitope binding for antibody C is found to be 20% for CCR5 mutant K171A or E172A (glu 172 is mutated to ala). 100% epitope binding is defined for wild-type CCR5. A further preferred anti-CCR5 antibody binds to the same epitope as antibody C binds.

HIV = HIV assays; assay type: cell-based; conditions: comparison with antibody 2D7

Molecule | Antiviral activity IC50 [1] [µg/mL] | Antiviral activity IC90 [1] [µg/mL] | Epitope binding [2] [%] | IC50 values compared with antibody 2D7 (HIV)
enfuvirtide | 0.206 | 3.955 | – | –
CC[C@H](C)[C@H](NC(=O)[C@H](CCC(N)=O)NC(=O)[C@H](C)NC(=O)[C@H](CCC(N)=O)NC(=O)[C@H](CCC(=O)O)NC(=O)[C@H](CC(C)C)NC(=O)[C@H](CC(C)C)NC(=O)[C@H](C)NC(=O)[C@@H](NC(=O)[C@@H](NC(=O)[C@H](CCCCN)NC(=O)[C@H](CCC(N)=O)NC(=O)[C@H](CCC(=O)O)NC(=O)[C@H](Cc1c[nH]c2ccccc12)NC(=O)[C@H](CCC(=O)O)NC(=O)[C@H](CCC(N)=O)NC(=O)[C@H](Cc1c[nH]c2ccccc12)NC(C)=O)[C@@H](C)CC)[C@@H](C)O)C(=O)N[C@@H](CCC(N)=O)C(=O)N[C@@H](CCC(N)=O)C(=O)N[C@@H](CCC(=O)O)C(=O)N[C@@H](CCCCN)C(=O)N[C@@H](CC(N)=O)C(=O)N[C@@H](CCC(=O)O)C(=O)N[C@@H](Cc1ccc(O)cc1)C(=O)N[C@@H](CCC(=O)O)C(=O)N[C@@H](CC(C)C)C(=O)N[C@@H](CCC(N)=O)C(=O)N[C@@H](CCCCN)C(=O)N[C@@H](CC(C)C)C(=O)N[C@@H](CC(=O)O)C(=O)N[C@@H](CCCCN)C(=O)N[C@@H](Cc1c[nH]c2ccccc12)C(=O)N[C@@H](C)C(=O)N[C@@H](CO)C(=O)N[C@@H](CC(C)C)C(=O)N[C@@H](Cc1c[nH]c2ccccc12)C(=O)N[C@@H](CCC(=O)O)C(=O)N[C@@H](Cc1c[nH]c2ccccc12)C(=O)N[C@@H](Cc1ccccc1)C(N)=O [T-1249] | 0.011 | 0.09 | – | –
CC[C@H](C)[C@H](NC(=O)[C@H](C)NC(=O)[C@H](CCCNC(=N)N)NC(=O)[C@H](CC(=O)O)NC(=O)[C@H](Cc1c[nH]c2ccccc12)NC(=O)[C@H](C)NC(=O)[C@H](CCC(=O)O)NC(=O)[C@H](Cc1c[nH]c2ccccc12)NC(=O)[C@@H](NC(=O)[C@@H](NC(C)=O)[C@@H](C)O)[C@@H](C)O)C(=O)N[C@@H](C)C(=O)N[C@@H](CCC(=O)O)C(=O)N[C@@H](Cc1ccc(O)cc1)C(=O)N[C@@H](C)C(=O)N[C@@H](C)C(=O)N[C@@H](CCCNC(=N)N)C(=O)N[C@H](C(=O)N[C@@H](CCC(=O)O)C(=O)N[C@@H](C)C(=O)N[C@@H](CC(C)C)C(=O)N[C@H](C(=O)N[C@@H](CCCNC(=N)N)C(=O)N[C@@H](C)C(=O)N[C@@H](C)C(=O)N[C@@H](CCC(N)=O)C(=O)N[C@@H](CCC(=O)O)C(=O)N[C@@H](CCC(N)=O)C(=O)N[C@@H](CCC(N)=O)C(=O)N[C@@H](CCC(=O)O)C(=O)N[C@@H](CCCCN)C(=O)N[C@@H](CC(N)=O)C(=O)N[C@@H](CCC(=O)O)C(=O)N[C@@H](C)C(=O)N[C@@H](C)C(=O)N[C@@H](CC(C)C)C(=O)N[C@@H](CCCNC(=N)N)C(=O)N[C@@H](CCC(=O)O)C(=O)N[C@@H](CC(C)C)C(N)=O)[C@@H](C)CC)[C@@H](C)CC [T-2635] | 0.014 | 0.161 | – | –
Antibody C: anti-CCR5 antibody, variable domains SEQ ID NO:5, 6 (antibody, V domains shown, mouse) VH: QVQLKQSGPGLVRPSQSLSITCTVSGFPLGIFGVHWVRQSPGKGLEWLGVIWKGGNTDYNAAFMSRLRITKDNSKSQVFFRMNSLQTDDTAIYYCAKVNLADAMDYWGQGTSVIVSS VL: DIQMTQSPASLSASVGETVTITCRASGNIHGYLAWFQQKQGKSPQLLVYNTKTLAEGVPSRFSGSGSGTQFSLKINSLQPEDFGNYYCQHHYDLPRTFGGGTKLEIKR | – | – | 20 | lower IC50 values than antibody 2D7
